# Laboratory results from patent US20180296456A1, “Decapeptide-12 Modulation of Sirtuin Gene Expression in Epidermal Keratinocyte Progenitors” (Escape Therapeutics, Inc., priority 2017, published 2018).
# Values joined by “and” are separate entries in the source; they are usually repeats but may differ in a detail not shown here. Identical values can stand only once. Ends that are not written are not given here.
# Columns and labels:
# Assay type in all cases: cell-based
# Conditions in all cases: 72 h
# SIRT1 = SIRT1 transcription, semi-quantitative RT-PCR in human epidermal progenitors
# Method: (§1) Human neonatal epidermal progenitors (Thermo Fisher Scientific, NY) were seeded in 6-well plates at a density of 2×10^5 cells/well. Each well received 2 ml of Epilife media containing 60 μM calcium chloride (Thermo Fisher Scientific, NY). Plates were incubated in a humidified chamber at 37 degrees Celsius and 5 percent CO2. Twenty-four hours later, cells were treated with various concentrations of oxyresveratrol or decapeptide-12 dissolved in PBS containing 5 percent DMSO. Control wells received vehicle only (5 percent DMSO and PBS). Final concentration of DMSO in each well was 0.05 percent.
# (§2) After a 72 hour incubation period, cells were trypsinized and total RNA extracted, using RNeasy kit (Qiagen, Valencia, Calif.) according to the manufacturer's protocol.
# (§3) RNA concentration was determined using nanodrop (Thermo fisher scientific, NY). Two μg of total RNA were used to synthesize cDNA using oligo dT primers and TaqMan reverse transcription reagents (Thermo fisher scientific, NY). The reaction was carried out in DNA Engine Peltier Thermal Cycler (Bio-Rad, Hercules, Calif.). The annealing temperature was 25 degrees Celsius for 10 minutes, followed by first strand synthesis at 48 degrees Celsius for 1 hour, and heat inactivation at 95 degrees Celsius for 5 minutes.
# (§4) The SIRT1-7 primers (table 1) were designed using Primer3. The semi-quantitative PCR reactions were performed on a DNA Engine Peltier Thermo Cycler (Bio-Rad, Hercules, Calif.). PCR was carried under the following conditions: denaturation at 94 degrees Celsius for 2 minutes and primer extension at 54 degrees Celsius for 30 seconds in 34 cycles for SIRT 1-7 and the housekeeping gene 18S.
# (§5) Samples were run and resolved on a 1.5 percent agarose gel containing 0.5 μg/ml of ethidium bromide and imaged using the FluorChem HD2 Imaging System (Protein simple, San Jose, Calif.). Densitometry analysis was carried out using the AlphaEase FC software (Protein simple, San Jose, Calif.). Intensity ratios were calculated as the intensity value for each gene divided by the intensity value of the internal control gene 18S.
# (§6) The effect of the decapeptides P4, P4A, P4B, and P4C upon the transcription levels of sirtuins 1-7 was evaluated. Table 4 summarizes transcription levels for all four decapeptides with the corresponding genes, at tested concentrations of: 10, 30, 50, 100, and 300 (all in μM).
# SIRT2 = SIRT2 transcription, semi-quantitative RT-PCR in human epidermal progenitors
# Method: as §1, §2, §3, §4, §5, §6
# SIRT4 = SIRT4 transcription, semi-quantitative RT-PCR in human epidermal progenitors
# Method: as §1, §2, §3, §4, §5, §6
# SIRT5 = SIRT5 transcription, semi-quantitative RT-PCR in human epidermal progenitors
# Method: as §1, §2, §3, §4, §5, §6
sequence,measurement,setting,value
"YRSRKYSSWY [decapeptide-12, YRSRKYSSWY]",SIRT1 transcription increase relative to control,SIRT1; 3 μM,3 ± 1%
same,SIRT1 transcription increase relative to control,SIRT1; 10 μM,12.2 ± 3.1%^
same,SIRT1 transcription increase relative to control,"SIRT1; 10 μM, listed as P4",12 ± 3%
same,SIRT1 transcription increase relative to control,SIRT1; 30 μM,34 ± 6.7%
same,SIRT1 transcription increase relative to control,"SIRT1; 30 μM, listed as P4",34 ± 7%
same,SIRT1 transcription increase relative to control,SIRT1; 50 μM,79.2 ± 12%
same,SIRT1 transcription increase relative to control,"SIRT1; 50 μM, listed as P4",79 ± 12%
same,SIRT1 transcription increase relative to control,SIRT1; 100 μM,141±11% and 141%
same,SIRT1 transcription increase relative to control,"SIRT1; 100 μM, listed as Deca",141.2 ± 11%
same,SIRT1 transcription increase relative to control,"SIRT1; 100 μM, listed as P4",141 ± 11%
same,SIRT1 transcription increase relative to control,SIRT1; 300 μM,188 ± 12%^
same,SIRT1 transcription increase relative to control,"SIRT1; 300 μM, listed as P4",188 ± 12%
same,SIRT1 transcription increase relative to control,SIRT1; 500 μM,205 ± 13.3%
same,SIRT1 transcription increase relative to control,SIRT1; 1000 μM,213%
same,SIRT1 transcription increase relative to control,"SIRT1; 1000 μM, listed as Deca",213 ± 13.4%
same,SIRT2 transcription increase relative to control,SIRT2; 3 μM,1 ± 1%
same,SIRT2 transcription increase relative to control,SIRT2; 10 μM,4.1 ± 3%
same,SIRT2 transcription increase relative to control,"SIRT2; 10 μM, listed as P4",4 ± 3%
same,SIRT2 transcription increase relative to control,SIRT2; 30 μM,11.2 ± 3.7%
same,SIRT2 transcription increase relative to control,"SIRT2; 30 μM, listed as P4",11 ± 4%
same,SIRT2 transcription increase relative to control,SIRT2; 50 μM,21.5 ± 4.9%
same,SIRT2 transcription increase relative to control,"SIRT2; 50 μM, listed as P4",22 ± 5%
same,SIRT2 transcription increase relative to control,"SIRT2; 100 μM, listed as Deca",35.4 ± 5.5%
same,SIRT2 transcription increase relative to control,"SIRT2; 100 μM, listed as P4",35 ± 5%
same,SIRT2 transcription increase relative to control,SIRT2; 300 μM,61.1± 6.8%
same,SIRT2 transcription increase relative to control,"SIRT2; 300 μM, listed as P4",61 ± 7%
same,SIRT2 transcription increase relative to control,SIRT2; 500 μM,76 ± 6.1%
same,SIRT2 transcription increase relative to control,SIRT2; 1000 μM,76 ± 7.1%
same,SIRT4 transcription increase relative to control,SIRT4; 3 μM,3 ± 1%
same,SIRT4 transcription increase relative to control,SIRT4; 10 μM,8.1 ± 4%^
same,SIRT4 transcription increase relative to control,"SIRT4; 10 μM, listed as P4",8 ± 3%
same,SIRT4 transcription increase relative to control,SIRT4; 30 μM,12.1 ± 7%
same,SIRT4 transcription increase relative to control,"SIRT4; 30 μM, listed as P4",12 ± 7%
same,SIRT4 transcription increase relative to control,SIRT4; 50 μM,41.2 ± 13.1%
same,SIRT4 transcription increase relative to control,"SIRT4; 50 μM, listed as P4",41 ± 13%
same,SIRT4 transcription increase relative to control,"SIRT4; 100 μM, listed as Deca",71.4 ± 14.1%
same,SIRT4 transcription increase relative to control,"SIRT4; 100 μM, listed as P4",71 ± 14%
same,SIRT4 transcription increase relative to control,SIRT4; 300 μM,115 ± 11.7%
same,SIRT4 transcription increase relative to control,"SIRT4; 300 μM, listed as P4",115 ± 12%
same,SIRT4 transcription increase relative to control,SIRT4; 500 μM,145 ± 12.7%
same,SIRT4 transcription increase relative to control,SIRT4; 1000 μM,151 ± 13.4%
same,SIRT5 transcription increase relative to control,SIRT5; 3 μM,3 ± 1%
same,SIRT5 transcription increase relative to control,SIRT5; 10 μM,5.2 ± 3%^
same,SIRT5 transcription increase relative to control,"SIRT5; 10 μM, listed as P4",5 ± 3%
same,SIRT5 transcription increase relative to control,SIRT5; 30 μM,21 ± 6.7%
same,SIRT5 transcription increase relative to control,"SIRT5; 30 μM, listed as P4",21 ± 7%
same,SIRT5 transcription increase relative to control,SIRT5; 50 μM,33.1 ± 6.1%
same,SIRT5 transcription increase relative to control,"SIRT5; 50 μM, listed as P4",33 ± 6%
same,SIRT5 transcription increase relative to control,"SIRT5; 100 μM, listed as Deca",46 ± 7.3%
same,SIRT5 transcription increase relative to control,"SIRT5; 100 μM, listed as P4",46 ± 7%
same,SIRT5 transcription increase relative to control,SIRT5; 300 μM,67 ± 9.3%
same,SIRT5 transcription increase relative to control,"SIRT5; 300 μM, listed as P4",67 ± 9%
same,SIRT5 transcription increase relative to control,SIRT5; 500 μM,87.4 ± 15.1%
